Results published in patent US20220323406A1, “METHODS AND COMPOSITIONS FOR DIFFERENTIATING STEM CELLS” (Massachusetts Institute of Technology, priority 2019, published 2022).

Columns and labels:
ENR+CD organoids = test: Primary screen: ATP (CellTiter-Glo 3D, CTG) cell number/viability, 2.5-D 384-well ENR+CD organoids; conditions: primary screen; for Z.CTG: standard z score;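 for all read-outs here: compounds given at plating and again on day 3 over a 6-day differentiation from ENR+CV stem-cell-enriched precursors, ATP measured on day 6, plate median as control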
[1] = system: ENR+CD organoids (ISC to Paneth cell differentiation); test: Primary screen: CCh-stimulated lysozyme secretion LYZ.S, 2.5-D 384-well ENR+CD organoid differentiation; type: cell-based, mouse; conditions: primary screen
Source text: (§1) High-throughput screening.

[2] = system: ENR+CD organoids (ISC to Paneth cell differentiation); test: Primary screen: basal (non-stimulated) lysozyme secretion LYZ.NS, 2.5-D 384-well ENR+CD organoid differentiation; type: cell-based, mouse
Source text: as §1

[3] = dose 0.08 uM, FC vs plate median
[4] = dose 0.40 uM, FC vs plate median
[5] = dose 2.00 uM, FC vs plate median
[6] = dose 10.00 uM, FC vs plate median

Molecule | Dose.FC.CTG (ENR+CD organoids; dose 0.08 uM) [log2 fold change] | Z.CTG (standard z score) (ENR+CD organoids; dose 0.08 uM) | Dose.FC.CTG (ENR+CD organoids; dose 0.40 uM) [log2 fold change] | Z.CTG (standard z score) (ENR+CD organoids; dose 0.40 uM) | Dose.FC.CTG (ENR+CD organoids; dose 2.00 uM) [log2 fold change] | Z.CTG (standard z score) (ENR+CD organoids; dose 2.00 uM) | Dose.FC.CTG (ENR+CD organoids; dose 10.00 uM) [log2 fold change] | Z.CTG (standard z score) (ENR+CD organoids; dose 10.00 uM) | Dose.FC.LYZ.S ([1]; dose 0.08 uM) [log2 fold change] | Dose.FC.LYZ.S ([1]; dose 0.40 uM) [log2 fold change] | Dose.FC.LYZ.S ([1]; dose 2.00 uM) [log2 fold change] | Dose.FC.LYZ.S ([1]; dose 10.00 uM) [log2 fold change] | Dose.FC.LYZ.NS ([2]; primary screen, dose 0.08 uM) [log2 fold change] | Z.LYZ.NS (standard z score) ([2]; primary screen, dose 0.08 uM) | Dose.FC.LYZ.NS ([2]; primary screen, dose 0.40 uM) [log2 fold change] | Z.LYZ.NS (standard z score) ([2]; primary screen, dose 0.40 uM) | Dose.FC.LYZ.NS ([2]; primary screen, dose 2.00 uM) [log2 fold change] | Z.LYZ.NS (standard z score) ([2]; primary screen, dose 2.00 uM) | Dose.FC.LYZ.NS ([2]; primary screen, dose 10.00 uM) [log2 fold change] | Z.LYZ.NS (standard z score) ([2]; primary screen, dose 10.00 uM) | also measured
VU 0364439 | 0.024 | 0.058 | −0.121 | −0.289 | −0.258 | −0.616 | 0.009 | 0.022 | 0.108 | 0.124 | −0.043 | −0.038 | 0.082 | 0.715 | 0.011 | 0.099 | 0.010 | 0.089 | −0.055 | −0.476 | –
C[C@]12C=CC(=O)N[C@@H]1CC[C@@H]1[C@@H]2CC[C@]2(C)[C@@H](C(=O)Nc3cc(C(F)(F)F)ccc3C(F)(F)F)CC[C@@H]12 [Dutasteride] | 0.057 | – | −0.266 | – | −0.098 | – | −0.057 | – | 0.001 | −0.054 | −0.074 | −0.151 | 0.065 | – | 0.006 | – | −0.105 | – | −0.092 | – | Z.LYZ.NS ([2]; primary screen, standard z score, dose 0.08 uM): 0.568; Z.LYZ.NS ([2]; primary screen, standard z score, dose 0.40 uM): 0.052; Z.LYZ.NS ([2]; primary screen, standard z score, dose 2.00 uM): −0.915; Z.LYZ.NS ([2]; primary screen, standard z score, dose 10.00 uM): −0.799
COc1ccc2cccc(CCNC(C)=O)c2c1 [Agomelatine] | 0.106 | – | 0.081 | – | −0.198 | – | 0.024 | – | 0.090 | 0.132 | −0.037 | 0.008 | 0.026 | 0.227 | 0.080 | 0.695 | 0.069 | 0.597 | −0.033 | −0.285 | –
C[C@]1(O)C[C@@H](c2nc(-c3ccc4ccc(-c5ccccc5)nc4c3)c3c(N)nccn32)C1 [OSI-906 (Linsitinib)] | – | – | – | – | – | – | – | – | – | – | – | – | – | – | – | – | – | – | – | – | Z.CTG (ENR+CD organoids; dose 0.08 uM): −0.775; Z.CTG (ENR+CD organoids; dose 0.40 uM): −0.377; Z.CTG (ENR+CD organoids; dose 2.00 uM): −0.661; Z.CTG (ENR+CD organoids; dose 10.00 uM): −0.934; Dose.FC.CTG (ENR+CD organoids; [3]): −0.324 log2 fold change; Dose.FC.CTG (ENR+CD organoids; [4]): −0.158 log2 fold change; Dose.FC.CTG (ENR+CD organoids; [5]): −0.277 log2 fold change; Dose.FC.CTG (ENR+CD organoids; [6]): −0.391 log2 fold change; Dose.FC.LYZ.S [1, 3]: −0.026 log2 fold change; Dose.FC.LYZ.S [1, 4]: −0.119 log2 fold change; Dose.FC.LYZ.S [1, 5]: −0.288 log2 fold change; Dose.FC.LYZ.S [1, 6]: −0.328 log2 fold change; Z.LYZ.NS ([2]; primary screen, dose 0.08 uM, standard z score): 0.110; Z.LYZ.NS ([2]; primary screen, dose 0.40 uM, standard z score): −0.806; Z.LYZ.NS ([2]; primary screen, dose 2.00 uM, standard z score): −1.882; Z.LYZ.NS ([2]; primary screen, dose 10.00 uM, standard z score): −1.996; Dose.FC.LYZ.NS ([2]; primary screen; dose 0.08 uM; FC vs plate median): 0.013 log2 fold change; Dose.FC.LYZ.NS ([2]; primary screen; dose 0.40 uM; FC vs plate median): −0.093 log2 fold change; Dose.FC.LYZ.NS ([2]; primary screen; dose 2.00 uM; FC vs plate median): −0.216 log2 fold change; Dose.FC.LYZ.NS ([2]; primary screen; dose 10.00 uM; FC vs plate median): −0.229 log2 fold change
C[C@H](NC(=O)Cc1cc(F)cc(F)c1)C(=O)N[C@@H]1C(=O)N(C)c2ccccc2-c2ccccc21 [YO-01027] | 0.221 | 0.528 | −0.475 | −1.135 | −0.571 | −1.363 | −1.032 | −2.464 | 0.105 | −0.058 | −0.020 | −0.184 | 0.051 | 0.443 | 0.085 | 0.739 | −0.080 | −0.699 | −0.157 | −1.369 | –
